In PMC10115881, “Disrupting the α-synuclein-ESCRT interaction with a peptide inhibitor mitigates neurodegeneration in preclinical models of Parkinson’s disease” (Nature Communications, 2023):

Columns and labels:
[1] = tested on: LAMP1 in iPSC-derived dopaminergic neurons; assay: LAMP1 fluorescence in iPSC-derived dopaminergic neurons; type: cell-based, human; settings: A53T a-syn iPSC-derived dopaminergic neurons
Description: A53T a-syn iCell Dopa neurons (catalog #R1109) and isogenic control iCell Dopa neurons (catalog #R1088) were purchased from Fujifilm Cellular Dynamics (Madison, WI, USA) and cultured as per the manufacturer’s instructions. Briefly, cells were plated in complete maintenance medium provided by the manufacturer on poly-L-ornithine/laminin coated μ plates (ibidi). Cells recovered from thawing for 24 h and then were transduced with AAV-Scramble1.3-RFP or AAV-PDpep1.3-RFP at MOI of 3000 for 48 h at which time media was completely changed. Cells were fixed using 4% PFA at 7 days post-plating.
Confocal images of immunofluorescent staining were acquired with a Zeiss LSM880 confocal microscope equipped with 405, 488, 555, and 639 nm laser lines. All images were taken within the linear range at constant gain and pinhole settings at optimal resolution settings determined by the software. […]
Confocal images of primary cortical neurons, iPSC-derived dopaminergic neurons, and LAMP1 staining within the SN were processed using Imaris software (Oxford instruments). […] Mean pixel intensity per GFP^+ cell (for experiments using GFP-tagged peptides) or RFP^+ cell (for experiments using RFP-tagged peptides) was calculated for a-syn or LAMP1 signal using the software’s surfaces module. […]

[2] = tested on: A53T a-syn-mediated cytotoxicity in HEK293 cells; assay: Pooled lentiviral 7-mer peptide cytotoxicity screen, A53T a-syn + MG132; type: cell-based, human;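 for Slope Norm Reads: reads normalized to total peptide reads per sample with scalar factor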
From the text: We used a lentiviral library of 50,549 7-mer peptides enriched in PPI motifs[13] on a green fluorescent protein (GFP) scaffold (Fig. 1A). We infected cells in a pooled format and the amino acid sequence of each peptide served as its own barcode. By using a low multiplicity of infection followed by puromycin selection, each infected cell expressed one unique GFP-peptide. We screened for peptides that reduced a-syn-mediated cytotoxicity or a-syn oligomers in parallel (Fig. 1A). To cause cytotoxicity relevant to PD, we induced proteostatic stress in HEK293 cells by inhibiting the proteasome with MG132 and overexpressing human WT a-syn associated with idiopathic PD in one screen or the more toxic mutant A53T a-syn associated with familial PD in a second screen. This combination of a-syn overexpression and pharmacological proteasome inhibition led to death of most cells, with only those that expressed a protective peptide surviving. By extracting genomic DNA from the surviving cells and amplifying the peptide coding sequences, we identified the protective peptides (Fig. 1A). To detect a-syn oligomers, we used a protein fragment complementation assay (PCA) of a-syn oligomerization in HEK293 cells. In this assay, human A53T a-syn was fused to either the C- or N-terminal half of yellow fluorescent protein (YFP). No fluorescence is detectable while a-syn exists in monomers but, when a-syn oligomerizes, the two halves of YFP come in close enough proximity to form a functional, spontaneously fluorescent protein. […] Our screens yielded 10 hits (Table S1). The hit with the most reads (i.e., the most abundant) was the same peptide in all screens: IPIQLKA (named PDpep1) (Table S1). We validated the cytoprotective effects of PDpep1 in HEK293 cells overexpressing WT or A53T a-syn (Figs. 1B, S1A), as well as its ability to reduce WT or A53T a-syn oligomers in a luciferase-based PCA[18]–[20] compared to a scrambled control peptide (Figs. 1C, S1B).
HEK293T cells (ATCC, CRL-3216) were maintained in DMEM supplemented with 10% FBS and 1% pen/strep/glutamine, and the appropriate selection antibiotics when required. Lentiviruses were made in a 15 cm dish format by transfecting packaging cells (HEK293T) with a three-plasmid system (expression vector, psPAX2 and pMD2.G) and using Polyjet DNA transfection reagent (FroggaBio, SL100688.1). Viral transduction of HEK293T cells were performed with a multiplicity of infection (MOI) of 0.3. Infected cells were selected in puromycin-containing medium to eliminate uninfected cells and three aliquots of cells were collected for sampling of the initial (T0) cell population. Cells were treated with MG132 at concentrations of 0, 10, 25, or 50 µM. For the cell viability screen, surviving cells were collected and gDNA was extracted for identification of peptide inhibitors of cell toxicity. For the inhibition of a-syn aggregation screen, a protein fragment complementation assay (PCA) was used by transfecting cells with split YFP-a-syn constructs following stable expression of the peptides. Cells were sorted based on their YFP fluorescence intensities with a FACSVantage SE cell sorter (BD Bioscience) and gDNA was extracted for identification of peptides.
Genomic DNA (gDNA) from peptide expressing cells at different time-points was extracted using QIAamp DNA Blood Mini Kit. PCR amplifications of peptides from gDNA in parallel with the lentiviral plasmid library (naïve library) were performed using indexed Illumina PCR primers to incorporate both the Illumina adapter sequences and indexing sequences. Each 50 μl reaction contained 3.2 μg of template, 2× PCR buffer, 2× enhancer solution, 300 μM each dNTP, 900 nM each of Adapter A (5′-[…]-[…]-3′) and Adapter B (5′-[…]-[…]-3′), 1 mM MgSO4, 3.75 units of Platinum Pfx polymerase, and water to 50 μl. […]

Substance	Effect on LAMP1 levels, iPSC neurons [1]	Reads 10M MG132 [2]	Reads 25M MG132 [2]	Reads 50M MG132 [2]	Slope Norm Reads [2]	Reads 0M MG132 ([2]; Illumina reads, average Phred >30)
DEEIERQLKALG [PDpep1.3]	LAMP1 levels to those of isogenic controls	–	–	–	–	–
IPIQLKA [PDpep1, initial screen hit peptide IPIQLKA]	–	20	3859	13308	40.54	168
